Data: patent publication US10450270B2, “Glyoxamide substituted pyrrolamide derivatives and the use thereof as medicaments for the treatment of hepatitis B” (Janssen Sciences Ireland UC, priority 2013, dated 2019)

What was measured:
HBV [1] = assay: Anti-HBV activity, HepG2.2.15 stable transfected cell line, HBV DNA from secreted virions by realtime PCR; type: cell-based; details: Hepatitis B virus
HBV [2] = assay: Anti-HBV activity, HepG2.117 inducible HBV producing cell line (Tet-off), intracellular HBV DNA by realtime PCR; type: cell-based; details: Hepatitis B virus
[3] = Cytotoxicity in HepG2 cells, Resazurin viability assay; details: human
[4] = 144 h, HepG2.2.15 cells, 6 days of treatment, HBV DNA from secreted virions, read-out: HepG 2.2.15 EC50
[5] = 72 h, HepG2.117 cells, 3 days of treatment, intracellular HBV DNA, read-out: HepG2 117 EC50
[6] = HepG2.2.15, 144 h, read-out: HepG 2.2.15 EC50 (μM)
[7] = HepG2.117, 72 h, read-out: HepG2 117 EC50 (μM)

Row | Structure (SMILES) | EC50 (HBV [1]; [4]) [µM] | EC50 (HBV [2]; [5]) [µM] | melting point [°C] | CC50 at 4 days ([3]; HepG2 cells) [nM] | EC50 (HBV [1]; [6]) [µM] | EC50 (HBV [2]; [7]) [µM] | CC50 at 4 days [3] [nM]
1 | CC[C@@H](C)NC(=O)C(=O)c1cc(C(=O)Nc2ccc(F)c(C)c2)n(C)c1 [Compound 1, (R)-4-(2-(sec-butylamino)-2-oxoacetyl)-N-(4-fluoro-3-methylphenyl)-1-methyl-1H-pyrrole-2-carboxamide] | 0.014 | 0.1 | 136.5 | > 25000 |  |  | 
2 | Cc1cc(NC(=O)c2cc(C(=O)C(=O)NC3(C)COC3)cn2C)ccc1F [Compound 4, N-(4-fluoro-3-methylphenyl)-1-methyl-4-(2-(3-methyloxetan-3-ylamino)-2-oxoacetyl)-1H-pyrrole-2-carboxamide] |  |  | 145.1 | > 25000 | 0.013 | 0.015 | 
3 | Cc1cc(NC(=O)c2cc(C(=O)C(=O)N[C@H](C)C(F)(F)F)cn2C)ccc1F [Compound 5, (R)—N-(4-fluoro-3-methylphenyl)-1-methyl-4-(2-oxo-2-(1,1,1-trifluoropropan-2-ylamino)acetyl)-1H-pyrrole-2-carboxamide] | 0.056 | 0.099 | 156.9 | > 25000 |  |  | 
4 | Cc1cc(NC(=O)c2cc(C(=O)C(=O)N[C@H]3CCOC3)cn2C)ccc1F [Compound 6, (S)—N-(4-fluoro-3-methylphenyl)-1-methyl-4-(2-oxo-2-(tetrahydrofuran-3-ylamino)acetyl)-1H-pyrrole-2-carboxamide] |  |  | 155.7 | > 25000 | 0.047 | 0.19 | 
5 | COC(=O)C(C)(C)NC(=O)C(=O)c1cc(C(=O)Nc2ccc(F)c(C)c2)n(C)c1 [Compound 7, methyl 2-(2-(5-(4-fluoro-3-methylphenylcarbamoyl)-1-methyl-1H-pyrrol-3-yl)-2-oxoacetamido)-2-methylpropanoate] |  |  | 161 | > 25000 | 0.21 | 0.058 | 
6 | Cn1cc(C(=O)C(=O)NC(C)(C)C)cc1C(=O)Nc1ccc(F)c(F)c1 [Compound 10, 4-(2-(tert-butylamino)-2-oxoacetyl)-N-(3,4-difluorophenyl)-1-methyl-1H-pyrrole-2-carboxamide] | 0.072 | 0.042 | 170.7 | > 25000 |  |  | 
7 | Cn1cc(C(=O)C(=O)NC2(C)COC2)cc1C(=O)Nc1ccc(F)c(F)c1 [Compound 11, N-(3,4-difluorophenyl)-1-methyl-4-(2-(3-methyloxetan-3-ylamino)-2-oxoacetyl)-1H-pyrrole-2-carboxamide] | 0.05 | 0.096 | 180.7 | > 25000 |  |  | 
8 | Cn1cc(C(=O)C(=O)NC(C)(C)C)cc1C(=O)Nc1cccc(C(F)(F)F)c1 [Compound 12, 4-(2-(tert-butylamino)-2-oxoacetyl)-1-methyl-N-(3-(trifluoromethyl)phenyl)-1H-pyrrole-2-carboxamide] |  |  |  |  | 0.043 | 0.74 | > 25000
9 | Cn1cc(C(=O)C(=O)NC2(C)COC2)cc1C(=O)Nc1cccc(C(F)(F)F)c1 [Compound 13, 1-methyl-4-(2-(3-methyloxetan-3-ylamino)-2-oxoacetyl)-N-(3-(trifluoro-methyl)phenyl)-1H-pyrrole-2-carboxamide] | 0.033 | > 1 |  | > 25000 |  |  | 
10 | Cn1cc(C(=O)C(=O)NC(C)(C)C)cc1C(=O)Nc1cc(F)c(F)c(Cl)c1 [Compound 14, 4-(2-(tert-butylamino)-2-oxoacetyl)-N-(3-chloro-4,5-difluorophenyl)-1-methyl-1H-pyrrole-2-carboxamide] | 0.03 | 0.038 |  | > 25000 |  |  | 
11 | Cn1cc(C(=O)C(=O)NC(C)(C)C)cc1C(=O)Nc1ccc(F)c(C#N)c1 [Compound 15, 4-(2-(tert-butylamino)-2-oxoacetyl)-N-(3-cyano-4-fluorophenyl)-1-methyl-1H-pyrrole-2-carboxamide] | 0.027 | 0.043 |  | > 25000 |  |  | 
12 | Cn1cc(C(=O)C(=O)NC2(C)COC2)cc1C(=O)Nc1ccc(F)c(C#N)c1 [Compound 16, N-(3-Cyano-4-fluorophenyl)-1-methyl-4-{[(3-methyloxetan-3-yl)amino]-(oxo)acetyl}-1H-pyrrole-2-carboxamide] | 0.048 | 0.04 |  | > 25000 |  |  | 
13 | Cn1cc(C(=O)C(=O)NC2(C)COC2)cc1C(=O)Nc1cc(F)c(F)c(Cl)c1 [Compound 17, N-(3-Chloro-4,5-difluorophenyl)-1-methyl-4-{[(3-methyloxetan-3-yl)-amino](oxo)acetyl}-1H-pyrrole-2-carboxamide] | 0.029 | 0.57 |  | > 25000 |  |  | 
14 | C[C@@H](NC(=O)C(=O)c1cc(C(=O)Nc2cc(F)c(F)c(Cl)c2)n(C)c1)C(F)(F)F [Compound 18, N-(3-Chloro-4,5-difluorophenyl)-1-methyl-4-(oxo{[(1R)-2,2,2-trifluoro-1-methylethyl]amino}acetyl)-1H-pyrrole-2-carboxamide] | 0.054 | 0.37 |  | > 25000 |  |  | 
15 | Cc1c(C(=O)C(=O)NC(C)(C)C)c(C)n(C)c1C(=O)Nc1ccc(F)c(C#N)c1 [Compound 19, 4-[(tert-Butylamino)(oxo)acetyl]-N-(3-cyano-4-fluorophenyl)-1,3,5-trimethyl-1H-pyrrole-2-carboxamide] | < 0.004 | 0.002 |  | > 100000 |  |  | 
16 | Cc1c(C(=O)C(=O)NC(C)(C)C)c(C)n(C)c1C(=O)Nc1ccc(F)c(F)c1 [Compound 20, 4-[(tert-Butylamino)(oxo)acetyl]-N-(3,4-difluorophenyl)-1,3,5-trimethyl-1H-pyrrole-2-carboxamide] | < 0.004 | 0.002 |  | > 25000 |  |  | 
17 | Cc1c(C(=O)C(=O)NC(C)(C)C)cn(C)c1C(=O)Nc1ccc(F)c(F)c1 [Compound 21, 4-[(tert-Butylamino)(oxo)acetyl]-N-(3,4-difluorophenyl)-1,3-dimethyl-1H-pyrrole-2-carboxamide] | 0.009 | 0.011 |  | > 25000 |  |  | 
18 | Cc1c(C(=O)C(=O)NC(C)(C)C)cn(C)c1C(=O)Nc1ccc(F)c(C#N)c1 [Compound 22, 4-[(tert-Butylamino)(oxo)acetyl]-N-(3-cyano-4-fluorophenyl)-1,3-dimethyl-1H-pyrrole-2-carboxamide] | 0.01 | 0.008 |  | > 25000 |  |  | 
19 | Cn1cc(C(=O)C(=O)NC(C)(C)C)c(Cl)c1C(=O)Nc1ccc(F)c(C#N)c1 [Compound 23, 4-[(tert-Butylamino)(oxo)acetyl]-3-chloro-N-(3-cyano-4-fluorophenyl)-1-methyl-1H-pyrrole-2-carboxamide] | 0.005 | 0.008 |  | > 25000 |  |  | 
20 | C[C@@H](NC(=O)C(=O)c1cn(C)c(C(=O)Nc2ccc(F)c(C#N)c2)c1Cl)C(F)(F)F [Compound 24, 3-chloro-N-(3-cyano-4-fluoro-phenyl)-1-methyl-4-[2-oxo-2-[[(1R)-2,2,2-trifluoro-1-methyl-ethyl]amino]acetyl]pyrrole-2-carboxamide] | 0.02 | 0.024 |  | > 25000 |  |  | 
21 | Cc1c(C(=O)C(=O)N[C@H](C)C(F)(F)F)cc(C(=O)Nc2ccc(F)c(C#N)c2)n1C [Compound 28, N-(3-cyano-4-fluoro-phenyl)-1,5-dimethyl-4-[2-oxo-2-[[(1R)-2,2,2-trifluoro-1-methyl-ethyl]amino]acetyl]pyrrole-2-carboxamide] | < 0.004 | 0.019 |  | > 25000 |  |  | 
22 | Cc1c(C(=O)C(=O)N[C@H](C)C(F)(F)F)c(Cl)c(C(=O)Nc2ccc(F)c(C#N)c2)n1C [Compound 30, 3-chloro-N-(3-cyano-4-fluoro-phenyl)-1,5-dimethyl-4-[2-oxo-2-[[(1R)-2,2,2-trifluoro-1-methyl-ethyl]amino]acetyl]pyrrole-2-carboxamide] | < 0.004 | 0.003 |  | > 25000 |  |  | 
23 | C[C@@H](NC(=O)C(=O)c1c(Cl)c(C(=O)Nc2ccc(F)c(C#N)c2)n(C)c1C1CC1)C(F)(F)F [Compound 31, 3-chloro-N-(3-cyano-4-fluoro-phenyl)-5-cyclopropyl-1-methyl-4-[2-oxo-2-[[(1R)-2,2,2-trifluoro-1-methyl-ethyl]amino]acetyl]pyrrole-2-carboxamide] | 0.012 | 0.019 |  | > 25000 |  |  | 
24 | Cc1c(C(=O)C(=O)NC(C)(C)C)c(Cl)c(C(=O)Nc2ccc(F)c(C#N)c2)n1C [Compound 32, 4-[2-(tert-butylamino)-2-oxo-acetyl]-3-chloro-N-(3-cyano-4-fluoro-phenyl)-1,5-dimethyl-pyrrole-2-carboxamide] | < 0.004 | < 0.004 |  | > 25000 |  |  | 
